Source: patent US20150071941A1, “TREATMENT OF ISCHEMIC RETINOPATHIES” (THE JOHNS HOPKINS UNIVERSITY, priority 2012, published 2015)
Entries after “also recorded” stand apart in the source; their conditions may differ.

What was measured:
Angptl4 [1] = experiment: OIR mouse model: RT-PCR of Angptl4 mRNA in neurosensory retina; type: in vivo; settings: OIR mice P12-P14, daily intraperitoneal digoxin
Procedure: (§1) Oxygen-Induced Retinopathy (OIR). […] At P12 the mice were returned to room air.
(§2) Quantitative Real-Time RT-PCR. RNA was isolated from culture cells or retinas with RNeasy Mini Kit (Qiagen) and cDNA prepared using MuLV Reverse Transcriptase (Applied Biosystems, Carlsbad, Calif.). Quantitative real-time PCR was performed with Power SYBR Green PCR Master Mix (Applied Biosystems) and MyiQ Real-Time PCR Detection System (Bio Rad). Normalization was done using cyclophilin A for mouse tissue and cell lines and β-actin for human cell lines. Primers for qPCR include: human VEGF, forward—[…] (SEQ ID NO:1) and reverse—[…] (SEQ ID NO:2); human ANGPTL4, forward—[…] (SEQ ID NO:3) and reverse—[…] (SEQ ID NO:4); human β-actin, forward—[…] (SEQ ID NO:5) and reverse—[…](SEQ ID NO:6); mouse VEGF, forward—[…] (SEQ ID NO:7) and reverse—[…](SEQ ID NO:8); mouse ANGPTL4, forward—[…] (SEQ ID NO:9) and reverse—[…] (SEQ ID NO:10); mouse cyclophilin A, forward—[…] (SEQ ID NO:11) and reverse—[…] (SEQ ID NO:12).

GFAP = experiment: OIR mouse model: GFAP expression in Müller cells; type: in vivo; settings: OIR mice, administration of digoxin
Description: as §1

[2] = test system: human dermal microvascular endothelial cells (HMVECs); experiment: In vitro endothelial cell permeability assay (passage of FITC-dextran through HMVEC monolayer); type: cell-based
Procedure: Permeability Assays. In vitro permeability assay was performed as previously described (48). Briefly, HMVEC were seeded on collagen-coated transwells ([…], PTFE; Corning), and allowed to grow as a 3-d-old mature monolayer. Following overnight starvation, 500 μL and 100 μL of conditioned medium were added for 30 min (37° C.) to the bottom and top chamber, respectively. A total of 100 μL of 1 mg/mL FITC dextran (molecular weight=40,000; Invitrogen) was added for 30 min. Fluorescence was quantified using a SpectraMax M5 Microplate Reader (Molecular Devices) with excitation at 494 nm and emission at 521 nm.

ANGPTL4 [3] = experiment: MIO-M1 Müller cells: ANGPTL4 mRNA (RT-PCR) and protein (Western blot/ELISA); type: cell-based, human; settings: digoxin pretreatment (100 ng as printed), 2 hours prior hypoxia
Procedure: (§3) Cell Culture and Reagents. MIO-M1 cells were a generous gift from Astrid Limb (University College London Institute of Ophthalmology). Isolation of primary Müller cells was performed as previously described (51). Primary human dermal microvascular endothelial cells (HMVEC) were obtained from Lonza and cultured according the manufacter's protocols. Recombinant ANGPTL4 and VEGF, and ANGPTL4 and VEGF ELISA kits were obtained from R&D Systems. The KDR inhibitor, SU1498, and rapamycin were obtained from Calbiochem. Digoxin was obtained from Sigma. Predesigned control (Scrambled) and ANGPTL4 and HIF-1β siRNA sequences were obtained from Qiagen. AdLacZ and AdCAS have been previously described (26).
(§4) Quantitative Real-Time RT-PCR. RNA was isolated from culture cells or retinas with RNeasy Mini Kit (Qiagen) and cDNA prepared using MuLV Reverse Transcriptase (Applied Biosystems, Carlsbad, Calif.). Quantitative real-time PCR was performed with Power SYBR Green PCR Master Mix (Applied Biosystems) and MyiQ Real-Time PCR Detection System (Bio Rad). Normalization was done using cyclophilin A for mouse tissue and cell lines and β-actin for human cell lines. Primers for qPCR include: human VEGF, forward—[…] (SEQ ID NO:1) and reverse—[…] (SEQ ID NO:2); human ANGPTL4, forward—[…] (SEQ ID NO:3) and reverse—[…] (SEQ ID NO:4); human β-actin, forward—[…] […]

Vegf [4] = experiment: OIR mouse model: RT-PCR of Vegf mRNA in neurosensory retina; type: in vivo; settings: OIR mice P12-P14, daily intraperitoneal digoxin
Procedure: as §1, §2

inner retina vessels [5] = experiment: OIR mouse model: vascular permeability / retinal edema (inner retinal cysts, extravascular albumin); type: in vivo; settings: P13 OIR mice, digoxin 2 mg/kg daily intraperitoneal
Procedure: as §1
(§5) Quantitation of vascular permeability in the retina was assessed by examining 4 high powered fields of the posterior retina from three animals and counting the number of CD31-labled inner retina vessels in the posterior retina that had visible adjacent extravascular albumin (detected by immunofluorescence) as a percent of the total vessels in each field.
(§6) Immunohistochemistry and Immunofluorescence. Immunohistochemical detection of extravascular albumin (Cedarlane-Nordic) was performed on cryopreserved mouse tissue sections using a nitroblue tetrazolium (NBT) development system using Streptavidin alkaline phosphatase (APase) as previously described (53) Immunohistochemical detection of HIF-1 alpha (Abcam), human and murine ANGPTL4 (Abcam and Lifespan BioSciences, respectively), VEGF (Santa Cuz), CD34 (Covance), and GFAP (Sigma) were performed in paraffin embedded human tissue (obtained from the Wilmer Eye Institute Ocular Pathology Archives with approval from the Johns Hopkins School of Medicine Internal Review Board) and mice cryopreserved tissue using ABC system (Dako) as previously described (4).

VEGF [6] = experiment: MIO-M1 Müller cells: VEGF mRNA (RT-PCR) and secreted protein (ELISA); type: cell-based, human; settings: digoxin 100 nM, 2 hours prior to hypoxia; 8 hours hypoxia
Procedure: as §3, §4

inner retina vessels [7] = experiment: Intravitreal injection of recombinant protein into the mouse eye: retinal vascular permeability; type: in vivo
Procedure: […]. Intraocular injections with 1 μl of rmVEGF or rmANGPTL4 (200 ng/ul) were performed with a nanofil syringe (World Precision Instruments) using a 36G beveled needle. Intraocular injections with 1 μl of AdLacZ or AdCAS (2×10^12 VP/mL) were performed with pulled-glass micropipettes and a Harvard pump microinjection apparatus as previously described (52).
as §5, §6

mouse ear vasculature = experiment: Modified Miles assay, vascular permeability in the mouse ear; type: in vivo; settings: intradermal injection of ANGPTL4 0.2 μg vs PBS
Procedure: In vivo permeability was assessed using a modified Miles assay as previously described (48). Briefly, Evan Blue dye was injected into mouse tail veins (200 μL of 12 mg/ml solution in PBS). After 5 minutes, animals were anesthetized using Tribromoethanol. 20 ul 0.2 ug VEGF or 0.2 ug ANGPTL4 was injected intradermally into the right ear (PBS was injected into left ear as a control). After 8 minutes, photographs were taken. Levels of Evans blue dye was then extracted from mouse ear in 1 mL of formamide at 55° C. for 16 hours and dye content quantified at 610 nm using a spectrophotometer (48).

angiogenesis = experiment: Promotion of angiogenesis / NV in vitro and in vivo (Example 9, cornea pocket assay)
Description: Cell Culture: ARPE19, human ES derived RPE cells, primary murine RPE cells. Rat: Subretinal lipid hydroperoxide CNV Model. Assays used included Cornea pocket assay, Western Blot and RT-PCR, and Immunohistochemistry and Immunofluorescence. Patient Samples: ELISA analysis of ANGPTL4 levels in aqueous humor.

Question: With `C[C@H]1O[C@@H](O[C@H]2[C@@H](O)C[C@H](O[C@H]3[C@@H](O)C[C@H](O[C@H]4CC[C@@]5(C)[C@H](CC[C@@H]6[C@@H]5C[C@@H](O)[C@]5(C)[C@@H](C7=CC(=O)OC7)CC[C@]65O)C4)O[C@@H]3C)O[C@@H]2C)C[C@H](O)[C@@H]1O` [digoxin] as the molecule, how does the “induction of Angptl4 mRNA” value (Angptl4 [1]) read?
Answer: The value was “completely abolished the induction of Angptl4”.

Question: And the GFAP expression (GFAP)?
Answer: The GFAP expression was “not affected”.

Question: And the “endothelial cell permeability promoted by conditioned media from hypoxic MIO-M1 cells” value ([2]; MIO-M1 pre-treated with 100 nM digoxin 2 hours prior to 8 hour hypoxia)?
Answer: The value was “potently blocked the property of the conditioned media to promote an increase in endothelial cell permeability; also recorded: inhibits the promotion of endothelial cell permeability by hypoxic MIO-M1 cells”.

Question: What about the “ANGPTL4 RNA and protein induced by hypoxia” value (ANGPTL4 [3]) of the same molecule?
Answer: Its value is “inhibited”.

Question: And the “induction of Vegf mRNA” value (Vegf [4])?
Answer: The value was “only partially inhibited the induction of Vegf”.

Question: What about the “vascular permeability (inner retinal cysts, extravasated albumin)” value (inner retina vessels [5]) of the same molecule?
Answer: The value was “decrease in vascular permeability; also recorded: inhibits the increase in inner retinal cysts and extravasated albumin”.

Question: And the “VEGF mRNA expression and protein secretion” value (VEGF [6])?
Answer: Its value is “inhibited VEGF mRNA expression and protein secretion; also recorded: inhibits”.

Question: Which results are given for `CC(C)c1cc(/C=C(\C#N)C(=O)NCCCc2ccccc2)cc(C(C)C)c1O` [SU1498]?
Answer: endothelial cell permeability promoted by 100 ng recombinant human VEGF ([2]; SU1498 5 μM pre-treatment of endothelial cells): completely blocked the induction of endothelial cell permeability; also recorded: abolishes the promotion of endothelial cell permeability by 100 ng of recombinant human VEGF; endothelial cell permeability promoted by conditioned media from hypoxic MIO-M1 cells ([2]; SU1498 5 μM pre-treatment of endothelial cells, 8 hours hypoxia): only a partial inhibition of endothelial cell permeability; also recorded: only partially blocks the promotion of endothelial cell permeability

Question: VEGF was tested. Which endothelial cell permeability ([2]; VEGF 100 ng) did it give?
Answer: The endothelial cell permeability was “promotes endothelial cell permeability”.

B1: rmANGPTL4: recombinant murine ANGPTL4 injected intravitreally (protein, UniProt Q9Z1P8 24-410, looked up)
Angiopoietin-related protein 4: QGRPAQPEPPRFASWDEMNLLAHGLLQLGHGLREHVERTRGQLGALERRMAACGNACQGPKGKDAPFKDSEDRVPEGQTPETLQSLQTQLKAQNSKIQQLFQKVAQQQRYLSKQNLRIQNLQSQIDLLAPTHLDNGVDKTSRGKRLPKMTQLIGLTPNATHLHRPPRDCQELFQEGERHSGLFQIQPLGSPPFLVNCEMTSDGGWTVIQRRLNGSVDFNQSWEAYKDGFGDPQGEFWLGLEKMHSITGNRGSQLAVQLQDWDGNAKLLQFPIHLGGEDTAYSLQLTEPTANELGATNVSPNGLSLPFSTWDQDHDLRGDLNCAKSLSGGWWFGTCSHSNLNGQYFHSIPRQRQERKKGIFWKTWKGRYYPLQATTLLIQPMEATAAS
Question: How did the “inner retinal cysts (H & E)” value (inner retina vessels [7]; 200 ng rmANGPTL4 intravitreal vs PBS) turn out when B1 was run?
Answer: The value was “increased inner retinal cysts”.

Question: And the “extravasation of albumin (immunohistochemistry)” value (inner retina vessels [7]; 200 ng rmANGPTL4 intravitreal vs control)?
Answer: Its value is “extravasation of albumin”.

Question: And the “vascular permeability (leakage of plasma and albumin)” value (inner retina vessels [7]; rmANGPTL4 intravitreal, retinas after 48 hours)?
Answer: Its value is “marked and statistically significant increase in vascular permeability”.

B2: ANGPTL4: Recombinant angiopoietin-like 4 protein obtained from R&D Systems (protein, UniProt Q9BY76 26-406, looked up)
Angiopoietin-related protein 4: GPVQSKSPRFASWDEMNVLAHGLLQLGQGLREHAERTRSQLSALERRLSACGSACQGTEGSTDLPLAPESRVDPEVLHSLQTQLKAQNSRIQQLFHKVAQQQRHLEKQHLRIQHLQSQFGLLDHKHLDHEVAKPARRKRLPEMAQPVDPAHNVSRLHRLPRDCQELFQVGERQSGLFEIQPQGSPPFLVNCKMTSDGGWTVIQRRHDGSVDFNRPWEAYKAGFGDPHGEFWLGLEKVHSITGDRNSRLAVQLRDWDGNAELLQFSVHLGGEDTAYSLQLTAPVAGQLGATTVPPSGLSVPFSTWDQDHDLRRDKNCAKSLSGGWWFGTCSHSNLNGQYFRSIPQQRQKLKKGIFWKTWRGRYYPLQATTMLIQPMAAEAAS
Question: With B2 as the molecule, how does the “vascular permeability (Evans blue dye, 610 nm)” value (mouse ear vasculature) read?
Answer: Its value is “remarkable increase in vascular permeability; also recorded: marked increase in dye”.

Question: And the promotion of angiogenesis (angiogenesis)?
Answer: The promotion of angiogenesis was “promoted angiogenesis both in vitro and in vivo”.

Question: What about the endothelial cell permeability ([2]; recombinant human ANGPTL4 2.5 or 5 μg) of the same molecule?
Answer: The endothelial cell permeability was “potently induced endothelial cell permeability”.

Question: What about the endothelial cell permeability ([2]; recombinant human ANGPTL4 2.5 or 5 μg, listed as recombinant human ANGPTL4) of the same molecule?
Answer: Its endothelial cell permeability is “promotes endothelial cell permeability”.
